# Measured values: patent EP0340198B1, “Immunoassay for the detection of alpha-haloacetamides” (priority 1988, dated 1989)
# Assays:
# alachlor antibodies = experiment: inhibition ELISA for alachlor (cross-reactivity studies); format: binding, rabbit; conditions: for reaction (cross-reactivity) with the antibodies, in words: relative to alachlor; for ELISA % Absorbance MEAN (n = 20): antisera from bleed seven
# Experimental: Immunoassays. A known "checkerboard assay" was initially conducted with each serum sample after the first boost to detect the production of antibodies against alachlor. […] The next 7 rows received the subsequent dilutions of the screening antigen. The plate was covered with Parafilm and stored overnight at 4°C. The next morning, the unbound screening antigen was removed from the wells by washing three times with phosphate buffered saline solution (0.01 M phosphate buffer of pH 7.4, 0.15 M NaCl; PBS). The remaining active sites in the wells were blocked with PBS-8% non-fat dry milk solution, (NFDM, 0.3 mL) for 1 hr at 22°C. Serum, which had been stored at -20°C, was freshly thawed and serially diluted (one to two) from 1,000 to 64,000-fold using PBS-T (PBS containing 0.02% Tween 20). Starting with the most concentrated solution, 0.1 mL of the serum solution was pipetted into all 8 wells of column 1; the remaining columns received the subsequent dilutions of the serum solution. The plate was covered and incubated at 22°C for 1.5 hrs. Following triplicate washes of the wells with PBS-T, each of the wells received 0.1 mL of goat anti-rabbit gamma-globulin conjugated to horseradish peroxidase (GAR-HRP) freshly thawed and diluted 4,000 fold with PBS-1% NFDM. After a final wash cycle (4 times) with PBS-T, freshly prepared O-phenylene diamine (PDA) substrate solution (0.2 mL, 0.04 mg/mL PDA and 0.01% H₂O₂ in 0.05 M citric acid and 0.15 M sodium dibasic phosphate, pH 5.0) was dispensed into each of the wells and incubated in the dark at 22°C for 30-60 min. Sulfuric acid (4 N, 50 µL) was added to each of the wells to stop the reaction, and the final absorbances of the wells (490 nm) were recorded.
# The inhibition ELISA required one additional step in the assay procedure described above. Equal volumes of the diluted serum and aqueous alachlor standard or unknown sample were mixed and preincubated at 22°C for 1 hr. This mixture (0.1 mL/well) was then analyzed in 6 replicate wells on the plate. The presence of free alachlor inhibited the binding of the antibody to the alachlor-BSA conjugate, resulting in an inhibition of the development of absorbance at 490 nm. The amount of free alachlor was indirectly proportional to the intensity of color developed. Levels of alachlor in unknown water samples were calculated based on the alachlor standards on the same plate. Alachlor standards (0, 0.2, 0.5, 1.0, 3.0, 5.0, and 8.0 ppb in deionized water) were stored at -20°C in 1-mL portions, and were freshly thawed for each assay.
# Data Calculations. The lay-out of a typical 96-well microtiter plate is 8 rows of 12 columns in an inhibition ELISA assay for alachlor. The first 6 wells in the first column of wells were not coated with the screening antigen and served as the background wells. The first 6 wells in the remaining 7 columns of wells were reserved for the seven alachlor standards (0 to 8 ppb) listed above. The remaining wells in all 8 rows were used for the samples. The uncorrected absorbances of the wells determined by the Bio-tek reader were used in the following calculations. The median was calculated for the 6 replicate background wells and was then subtracted from the medians of the standards and samples. All the median values were divided by the median of the standard without alachlor (0 ppb) to generate percentages of absorbances. The percent absorbance of the alachlor standards was then plotted on the Y axis against the logarithm (base 10) of the actual concentrations of alachlor on the X axis. A hyperbolic curve was drawn through the standards, and the resulting standard curve was used to calculate the concentrations of alachlor in the unknown samples.
# The calculations described above were usually carried out using a computer program.
# [1] = tested on: antibodies toward metolachlor; experiment: inhibition ELISA for metolachlor; format: binding, rabbits; conditions: standard solutions at 10 and 50 ppb in DI water
# Excerpt: (§1) The generation of antibodies toward butachlor (2-chloro-2′,6′-diethyl-N-(butoxymethyl)acetanilide), amidochlor (2-chloro-2′,6′-diethyl-N-acetamidomethyl acetanilide), and metolachlor (2-chloro-2′-ethyl-6′-methyl-N-(2-methoxy-1-methylethyl)acetanilide) were accomplished following identical procedures as those described for alachlor. The individual 14C-labeled chloroacetanilide was covalently bound to HSA (human serum albumin) with AHT, and to sheep IgG with AMSA.
# (§2) The hapten-IgG conjugates were used to immunize rabbits. The corresponding hapten-BSA conjugates were then utilized in checkerboard assays to determine the presence of desired antibodies in the antisera. An inhibition ELISA for butachlor was set up with antiserum, butachlor-HSA screening antigen, and butachlor. Similar assays were also set up for amidochlor and metolachlor.
# (§3) The sensitivity of the inhibition ELISA for butachlor, amidochlor, and metolachlor was tested with respective standards prepared in DI water. Using the best antiserum, the butachlor ELISA produced an IC50 of 8 ppb.
# (§4) The specificity of the ELISA for butachlor, amidochlor, and metolachlor were tested using standard solutions of alachlor, acetochlor, butachlor, amidochlor, metolachlor, and propachlor at concentrations of 10 and 50 ppb in DI water. At these concentrations, the ELISA assay for butachlor, amidochlor, and metolachlor was each inhibited only by the respective free hapten, and not by any of the other chloroacetanilides.
# [2] = tested on: antibodies toward butachlor; experiment: inhibition ELISA for butachlor; format: binding, rabbits; conditions: standard solutions at 10 and 50 ppb in DI water
# Excerpt: as §1, §2, §3, §4
# affinity column = affinity column extraction of alachlor from rat urine containing alachlor metabolites; format: binding, rabbit; conditions: 0.5 µg/2 mL Urine
# Experimental: Affinity Chromatography. The preparation of affinity columns using rabbit antisera was as follows: The rabbit IgG's were purified by passing 5 mL of the antiserum through a column containing 5 mL of the swelled protein A-agarose gel. By monitoring the absorbance at 280 nm in the column effluent, the non-bound proteins were removed by washing with PBS, and the IgG's were then eluted with acetic acid at pH 2.3 (0.58% acetic acid and 0.15 M NaCl). The fractions containing the IgG's were combined and neutralized; based on the UV absorbance at 280 nm (absorbance/1.4 = mg/mL protein), approximately 33 mg of IgG were isolated from 5 mL of serum, which was then lyophilized and stored at -20°C. The reusable protein A-agarose column was stored in PBS containing 0.02% sodium azide at 4°C.
# The protein A-purified IgG was immobilized onto Affigel-10 affinity support. Affigel-10 (5 mL) was washed 3 times with isopropyl alcohol and 3 times with cold distilled water in a Buchner funnel. The gel was then added to a solution of IgG (3 mL in 0.1 M HEPES buffer, pH 7.5) at 4°C. Following 4 hrs of stirring, the gel was precipitated by gentle centrifugation and washed with HEPES buffer (3 x 3 mL). The remaining active sites on the gel were blocked by resuspending the gel in water (2 mL) and adding ethanolamine HCl (0.5 mL, 1M), and stirring the mixture at 22°C for 1 hr. […]
SMILES,"reaction (cross-reactivity) with the antibodies, in words (alachlor antibodies)",inhibition of the ELISA assay for metolachlor [1],inhibition of the ELISA assay for butachlor [2],% 14C Eluent (75% CH3OH) (affinity column) [%],% 14C Wash (H2O) (affinity column) [%],ELISA % Absorbance MEAN (n = 20) (alachlor antibodies; Alachlor Conc. 0.2 ppb) [%],ELISA % Absorbance MEAN (n = 20) (alachlor antibodies; Alachlor Conc. 0.5 ppb) [%],ELISA % Absorbance MEAN (n = 20) (alachlor antibodies; Alachlor Conc. 1.0 ppb) [%],ELISA % Absorbance MEAN (n = 20) (alachlor antibodies; Alachlor Conc. 3.0 ppb) [%],ELISA % Absorbance MEAN (n = 20) (alachlor antibodies; Alachlor Conc. 5.0 ppb) [%],ELISA % Absorbance MEAN (n = 20) (alachlor antibodies; Alachlor Conc. 8.0 ppb) [%],"percent cross-reactivity (alachlor antibodies; IC50 of alachlor divided by IC50 of analog x 100, bleed not stated) [%]",percent cross-reactivity (alachlor antibodies; bleed four) [%],cross-reactivity in the subsequent bleeds (alachlor antibodies; bleeds after bleed four)
"CC(C)N(C(=O)CCl)c1ccccc1 [Propachlor, propachlor]",little to no interaction,not,not,,,,,,,,,,,
"CCc1cccc(CC)c1N(COC)C(=O)CCl [Alachlor, α-chloro-2′,6′-diethyl-N-methoxymethyl acetanilide]",,not,not,83.3,14.7,78.1,55.3,37.4,22.9,17.7,11.3,100,,
"CCOCN(C(=O)CCl)c1c(C)cccc1CC [Acetochlor, acetochlor]",little to no interaction,not,not,,,,,,,,,,10,decreased slightly
